Source: PMC9145741, “Bioprospecting for Thermozymes and Characterization of a Novel Lipolytic Thermozyme Belonging to the SGNH/GDSL Family of Hydrolases” (International Journal of Molecular Sciences, 2022)

Test system: T1, LipB12_A11
T1 construct: EcoRV fosmid fragment subcloned in pJET1.2, E. coli T7 Express; no tag mentioned; heat step, ammonium sulphate, Superdex 75
Experiment: p-nitrophenol release at […] nm, Michaelis-Menten non-linear regression
Format: biochemical
Settings: 60 °C, pH 9; 0.002-2 mM substrate

Km: 17.3 ± 3.51 µM
Structure (SMILES): CCCCCCCCCCCC(=O)Oc1ccc([N+](=O)[O-])cc1 [pNP-laurate]
